This note sets out measurements from patent US20060147922A1, “Novel diagnostic and therapeutic methods and reagents therefor” (priority 2002, published 2006).

Entries after “also recorded” stand apart in the source; their conditions may differ. Where no end group is shown, it is not given here. [ ]: non-standard residue; d: D form. pT = C[C@@H](OP(=O)(O)O)[C@H](N)C(=O)O

The subject of one test is EDD-CIB interaction. Kind of test: GST-CIB pull-down of EDD from MCF-7 nuclear extracts after DNA damaging agents. The test is classed as cell-based, human. As to the method:
(D) Interaction of EDD and CIB in HEK 293 and MCF-7 cells. Left, HEK 293 cells overexpressing mutant EDD were transfected with a plasmid encoding Flag-tagged CIB or empty vector (vec). Extracts from these cells were subjected to immunoprecipitation using anti-FLAG Ab M2. Right, nuclear extracts prepared from MCF-7 cells following treatment with DNA damage agents phleomycin (Phleo) or hydroxyurea (HU) were incubated with either GST or GST-CIB fusion protein bound to glutathione-Sepharose beads. Bound proteins from both procedures were analysed by SDS-PAGE and western blotted for EDD and amounts bound are indicated as percentages relative to input.
For GST fusion protein pull-down of endogenous or recombinant EDD from cell lysates, 0.5 to 1 mg total protein was incubated with 5 μg GST or GST fusion protein bound to glutathione beads for 1-2 h at 4° C. Beads were washed extensively in 1% Triton X-100 lysis buffer and bound proteins resolved by SDS-PAGE and detected by immunoblotting with EDD antisera (Callaghan et al, Oncogene 17, 3479-3491, 1998). For immunoprecipitation, 10 μl importin α5 antisera (Peter Palese, Mount Sinai School of Medicine) was incubated with 0.5 to 1 mg cell lysate (4° C. for 1 h). Antibody conjugates were captured on protein A sepharose beads (4° C. for 1 h) and washed extensively in lysis buffer. […]

The test system of another test is BRCA2-chk2 interaction. Kind of test: chk2 immunoprecipitation, western blot for BRCA2, from MCF-7 nuclear extracts after DNA damaging agents. The test is classed as cell-based, human. The note with it: phleomycin or hydroxyurea. The source says:
(§1) (B) Interactions between EDD, BRCA2 and chk2 are modified in response to DNA damaging agents. Nuclear extracts from MCF-7 cells that had been cultured in the presence of the radiomimetic phleomycin or the UV mimic hydroxyurea (HU), or from control MCF-7 cells, were subjected to immunoprecipitation with polyclonal chk2 antibody (N17). Following precipitation of immune complexes and extensive washing, bound proteins were separated by SDS-PAGE and western blotted for EDD, BRCA2 or chk2.
(§2) MCF-7 cells were incubated in RPMI containing 0.5% foetal bovine serum for 18 h before addition of phleomycin (Cayla, France) at 100 μg/ml, hydroxyurea (Calbiochem, CA, USA) at 2 mM or PBS vehicle, for 6 h. Cells were harvested for total protein or nuclear protein extracts as described above.
(In western blotting, separated proteins are transferred to a membrane and probed.)

Another test deals with EDD-chk2 interaction. Kind of test: chk2 immunoprecipitation / GSTchk2-N pull-down of EDD from MCF-7 nuclear extracts after DNA damaging agents. The note with it: for amount of EDD associating with chk2: MCF-7 nuclear extracts, phleomycin 100 μg/ml or hydroxyurea 2 mM. Type of test: cell-based, human. How it is done:
Nuclear extracts from MCF-7 cells that had been cultured in the presence of the radiomimetic phleomycin (100 μg per ml) or from control MCF-7 cells were immunoprecipitated with polyclonal CHK2 antibody (N17) or incubated with goat IgG as a negative control. Following precipitation of immune complexes and extensive washing, bound proteins were separated by SDS-PAGE and western blofted for EDD or CHK2.
(C) Nuclear extracts from MCF-7 cells that had been cultured in the presence of phleomycin (100 μg per ml) or from control MCF-7 cells were incubated with GSTCHK2-N or with GST alone bound to glutathione-Sepharose beads. Bound proteins were separated by SDS-PAGE and immunoblotted for EDD and GST.
as §1, §2

Another test has as its target T1, PR(CDE) (Homo sapiens, UniProt P06401).
T1 construct: PR(CDE) (aa 456-933) regions into pGEX4T2 for GST fusion protein expression; made in house; host or cells: GST fusion from E. coli BL21; EDDF1 / SRC-1 by coupled in vitro transcription/translation (TNT Quick, Promega)
T1 sequence (P06401 456-933): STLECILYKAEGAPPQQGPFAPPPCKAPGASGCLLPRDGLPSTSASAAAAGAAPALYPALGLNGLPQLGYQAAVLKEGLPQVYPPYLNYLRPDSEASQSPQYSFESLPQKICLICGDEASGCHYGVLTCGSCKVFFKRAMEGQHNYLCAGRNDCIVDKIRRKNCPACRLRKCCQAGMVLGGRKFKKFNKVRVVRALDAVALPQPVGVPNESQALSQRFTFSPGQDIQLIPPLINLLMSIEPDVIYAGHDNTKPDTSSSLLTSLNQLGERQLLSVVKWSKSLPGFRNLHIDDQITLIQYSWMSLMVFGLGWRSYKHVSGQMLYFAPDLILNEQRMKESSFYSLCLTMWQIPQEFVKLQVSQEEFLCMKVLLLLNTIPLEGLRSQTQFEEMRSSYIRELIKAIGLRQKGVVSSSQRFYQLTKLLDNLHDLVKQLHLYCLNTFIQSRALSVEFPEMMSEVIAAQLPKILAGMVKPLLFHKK
Kind of test: GST-PR(CDE) pull-down of in vitro translated EDDF1 or SRC-1. The test is classed as binding. The note with it: in vitro assays (data not shown).

The next test deals with T2, PR B (Homo sapiens, UniProt P06401).
T2 sequence (P06401 1-933): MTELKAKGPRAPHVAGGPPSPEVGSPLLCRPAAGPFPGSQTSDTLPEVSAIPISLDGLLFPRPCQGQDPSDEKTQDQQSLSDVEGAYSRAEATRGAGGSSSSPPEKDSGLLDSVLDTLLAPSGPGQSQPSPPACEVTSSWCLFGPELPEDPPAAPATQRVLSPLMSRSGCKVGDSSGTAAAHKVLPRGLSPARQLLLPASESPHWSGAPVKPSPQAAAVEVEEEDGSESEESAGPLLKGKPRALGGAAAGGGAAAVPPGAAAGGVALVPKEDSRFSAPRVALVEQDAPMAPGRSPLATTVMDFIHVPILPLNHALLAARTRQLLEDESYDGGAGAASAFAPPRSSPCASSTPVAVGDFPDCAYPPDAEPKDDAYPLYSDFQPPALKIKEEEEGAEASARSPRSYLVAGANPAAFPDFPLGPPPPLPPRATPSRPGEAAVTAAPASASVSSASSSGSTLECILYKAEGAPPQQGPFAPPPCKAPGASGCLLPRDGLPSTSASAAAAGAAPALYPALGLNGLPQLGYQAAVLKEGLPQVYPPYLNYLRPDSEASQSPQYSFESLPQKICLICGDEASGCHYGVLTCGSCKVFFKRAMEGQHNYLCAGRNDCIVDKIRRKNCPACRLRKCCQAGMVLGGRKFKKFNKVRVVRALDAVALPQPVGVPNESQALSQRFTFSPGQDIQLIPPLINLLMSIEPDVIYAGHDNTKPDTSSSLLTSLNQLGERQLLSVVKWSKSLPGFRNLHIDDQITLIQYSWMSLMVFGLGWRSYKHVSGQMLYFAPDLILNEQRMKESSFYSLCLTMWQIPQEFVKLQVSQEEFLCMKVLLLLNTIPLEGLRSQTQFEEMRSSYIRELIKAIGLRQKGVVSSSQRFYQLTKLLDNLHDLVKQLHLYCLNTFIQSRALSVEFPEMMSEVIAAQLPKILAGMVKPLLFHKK
Kind of test: Nuclear receptor transactivation assay (MMTV-luciferase reporter). The test is classed as cell-based. The note with it: HEK 293 cells, 24 h.

In the next test the target is T3, chk2 FHA domain (Homo sapiens, UniProt O96017).
T3 construct: made in house; host or cells: GST fusion from E. coli BL21; EDDF5 by coupled in vitro transcription/translation (TNT Quick, Promega)
Kind of test: GSTchk2-N pull-down of in vitro translated EDD in presence of FHA-binding phosphopeptide. Particulars: pre-incubation of GSTchk2-N fusion protein with peptide. How it is done:
(D) The phosphopeptide-binding interface of the chk2 FHA domain is required for EDD binding. In vitro translated ^35S-labelled EDD derivative EDDF5 (aa 889-2799) was incubated with GSTchk2-N or GSTchk2-N derivatives containing R117A or I157T substitutions, or with GST alone bound to glutathione-Sepharose beads. The incubations with GSTchk2-N or GSTchk2-N(I157T) were carried out in the presence or absence of an FHA-binding phosphopeptide at 0, 80 or 150 μM. Bound EDD was detected by SDS-PAGE and autoradiography.
GST-tagged fusion proteins were prepared from E. coli strain BL21 according to established protocols (Pharmacia Protocol Handbook). Soluble fusion proteins were bound to glutathione agarose and quantitated via Coomassie blue staining against protein standards. 35S-labelled EDD protein and mutants or SRC-1 were synthesised in a coupled in vitro transcription/translation system (TNT Quick, Promega) and 10-20 μl reaction mixture was diluted in 1% Triton X-100 lysis buffer (Callaghan et al, Oncogene 17, 3479-3491, 1998) and incubated with 5 μg of GST, GST-importin α5, GST-PR(CDE) or GST-CIB coupled to glutathione agarose beads at 4° C. for 2 h. Beads were collected by centrifugation, washed extensively in lysis buffer and resuspended in SDS-PAGE sample buffer. After boiling, bound protein was visualised following SDS-PAGE and autoradiography. […]

T3 sequence (O96017 1-225): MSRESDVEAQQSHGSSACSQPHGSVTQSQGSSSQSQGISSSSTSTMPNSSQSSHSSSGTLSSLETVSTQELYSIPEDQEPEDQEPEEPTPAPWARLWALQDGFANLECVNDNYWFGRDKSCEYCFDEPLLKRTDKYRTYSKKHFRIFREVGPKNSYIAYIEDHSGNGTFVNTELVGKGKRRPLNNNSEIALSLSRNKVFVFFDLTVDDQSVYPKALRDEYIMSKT
Method for PR B: (D) Effect of EDD on response to the synthetic progestin ORG2058. HEK 293 cells were transfected for reporter assay along with a transfection control plasmid (pRL-TK). Cells were harvested for luciferase assay following 24 h treatment with increasing concentrations of ORG2058.
HEK 293 or COS7 cells were plated in 6-well plates (2×10^5 cells/well) and the medium changed to 2% charcoal-stripped FCS the following day. Transfection was carried out using 3-4 μl Fugene 6 Reagent (Roche) with 1-2 μg DNA comprised of 90 ng receptor expression vector, 450 ng luciferase reporter vector and 1.2 μg EDD, EDDM or SRC-1 cDNAs in either pRcCMV or pSG5, or empty vector, and 200 ng GFP expression vector pGFP20. […] In some experiments cell number was monitored using the CellTiter96® Proliferation Assay (Promega Corp., Madison, USA). Cells in 6-well plates were analysed for GFP expression by fluorescence microscopy to determine transfection efficiency and also used for preparation of protein lysates so that protein expression levels of various constructs could be compared. […] In some experiments pRSV-β-gal or pRL-TK (Promega Corp., Madison, USA) vectors were transfected in place of pGFP20 and transfection efficiency monitored by assaying for β-galactosidase or Renilla luciferase activity respectively.
From the text for PR(CDE): First we performed GST-PR fusion protein pull-downs of EDD or in vitro synthesised EDD fragments. […] This interaction was mapped using in vitro translated EDD protein fragments.

phleomycin: the EDD protein levels entry in the test with EDD-CIB interaction (MCF-7 cells after treatment) is listed as “unchanged”. In addition, the “association between EDD and CIB” value in the test with EDD-CIB interaction (MCF-7 cells, phleomycin 100 μg/ml 6 h, vs untreated or hydroxyurea-treated cells) is “significantly less association between EDD and CIB; also recorded: decrease in the amount of associating EDD”. Further, the “amount of BRCA2 associated with chk2” value with BRCA2-chk2 interaction is listed as “no effect on the amount of BRCA2 associated with chk2”. Further, in the test with EDD-chk2 interaction (MCF-7 nuclear extracts after treatment), the “mobility and levels of EDD protein” value is reported as “no change in either the mobility or levels of EDD protein”. In addition, the “amount of EDD associating with chk2” value in the test on EDD-chk2 interaction was “considerably reduced; also recorded: diminished; also recorded: Decreased association between EDD and CHK2”.

`CCC1CC2C3CCC4=CC(=O)CCC4C3CCC2(C)C1C(=O)CO` (centres unmarked) [ORG2058]: the “effect of PR ligand on interactions between PR(CDE) and SRC-1 or EDDF1” value on PR(CDE) is reported as “not affected”. Besides, the “ORG2058 concentration at which that maximal response was exceeded” value at PR B (with EDD overexpression) stood at 100 pM. The “ORG2058 concentration giving maximal response (luciferase activity)” value on PR B (without EDD transfection) stood at 10 nM.

For `NC(=O)NO` [hydroxyurea], in the test on BRCA2-chk2 interaction, the “amount of BRCA2 associated with chk2” value was “considerably reduced”. In addition, the “amount of EDD associating with chk2” value in the test with EDD-chk2 interaction is given as “no effect on the association with EDD”.

Turning to “RWFDT(P)YLIRR: phosphopeptide that binds strongly to the FHA domain (RWFD[pT]YLIRR)”, in the test with chk2 FHA domain, the “peptide concentration that abolished binding between EDD and chk2-N” value is given as “greater than 50 μM”.
